Experimental data as given in US20190111040A1, “IN VIVO AMELIORATION OF ENDOGENOUS ANTI-TUMOR AUTOANTIBODIES TARGETING SURFACE TUMOR ANTIGENS VIA LOW-DOSE P4N” (THE JOHNS HOPKINS UNIVERSITY, priority 2016, published 2019).

Legend:
[1] = test system: THP-1 cells; experiment: Effect of inhibitors on Activin A-induced BAFF expression in THP-1 cells; format: cell-based; conditions: THP-1 cells treated with inhibitor and P4N
Description: (§1) FIGS. 5A-5F depict the expression of Activin A/BAFF induced by P4N treatments. (A) P4N induced Activin A or BAFF expression in human PBMCs as determined by RT-PCR. S1-S5 display different individual blood samples collected from 5 different human donors; N, no treatment; P, P4N-treatment (3 μM). The change in Activin A and BAFF expression (mean of 5 patients) relative to the control (NC) is plotted as a histogram (B) The effect of increasing dosages of P4N for 12 h on mRNA and protein levels of Activin A or BAFF in THP-1 cells was analyzed by RT-PCR and ELISA. (C) The effect of 6 μM P4N on mRNA and protein levels of Activin A or BAFF in THP-1 cells was determined at a different time period. (D) The effect of different inhibitors on Activin A-induced BAFF expression was examined. The expression of BAFF mRNA in inhibitor-treated THP-1 cells was determined by RT-PCR, and (E) BAFF protein secretion was measured by ELISA. (F) The effect of THP-1 conditioned media on the proliferation of Raji cells and OKT3 hybridoma cells were determined. Media were harvested, in which THP-1 cells were pre-treated without inhibitor (2) or with SB431542 (3), A83-01 (4), SIS3 (5), SB203580 (6) or PD98059 (7) and then treated with P4N for 12 h. The results are expressed as % viable cells relative to the control (NC, media from untreated THP-1 cells). All values are the means of triplicate samples±SEM. The significant differences in the results of inhibitor and P4N-treated groups compared with the untreated group are indicated by ***P<0.001.
Reverse transcription PCR. Human PBMCs or THP-1 cells were treated with P4N, and then the mRNA expression of INHBA and BAFF in these cells was measured by reverse transcription PCR. Briefly, total cellular RNA was extracted with Trizol reagent (Invitrogen) and reverse-transcribed into cDNA using the Superscript RT-kit (Invitrogen). The cDNA of INHBA and BAFF were then amplified by PCR. GAPDH cDNA in the samples was used to normalize the loading amounts in each reaction. Finally, PCR products were resolved by electrophoresis on 2% agarose gels and visualized with ethidium bromide.

[2] = test system: THP-1 cells; experiment: TNF-α, IL-8 and Activin A ELISA in THP-1 cells with bestatin and P4N; format: cell-based; conditions: 10 μM bestatin 2 h, then 3 μM P4N
Description: FIGS. 6A-6E show P4N directly regulated LTA4H to induce monocyte inflammation. (A) P4N (orange) was docked with LTA4H by iGEMDOCK software (gemdock.life.nctu.edu.tw/dock/igemdock.php). RB3041 (Pink) is a small molecule inhibitor that identifies the active site of LTA4H. The amino acids that potentially interact with P4N are noted. The effects of P4N and bestatin on monocytes and their expression of (B) LTB4, (C) TNF-α, (D) IL-8, or (E) Activin A were determined and shown for different times. All values were expressed as the mean±SEM. **P<0.05, group P4N vs group (P4N+bestatin).
ELISA assays. THP-1 cells (1×10^6 cells/ml/well) in a 24-well culture plate were pretreated with 10 μM bestatin (a LTA4H inhibitor, Sigma-Aldrich) for 2 h and then treated with 3 μM P4N for various time intervals. The levels of LTB4 in the culture media were determined by the LTB4 (Enzo Life Sciences, Farmingdale, N.Y.) (R&D) ELISA Kits. The amount of TNF-α, IL-8 and Activin A in cultured media were measured in a similar manner.

[3] = test system: Raji or OKT3 cells; experiment: Cell proliferation assay with THP-1-conditioned media; format: cell-based; conditions: conditioned medium from THP-1 cells treated with P4N and the inhibitor
Description: as §1
Cell proliferation assay. Raji or OKT3 cells (1×10^4/well) were seeded and treated with THP-1-conditioned media. After 48 h the number of viable cells was determined by MTT assay. The indices of cell proliferation were calculated as previously described.

[4] = test system: LTB4 production; conditions: reference (32); cited from earlier work

COc1cccc(-c2cc(=O)c3ccccc3o2)c1N [PD98059]
BAFF transcription and protein expression [1]: had fewer effects

CC(C)C[C@H](NC(=O)[C@@H](O)[C@H](N)Cc1ccccc1)C(=O)O [Bestatin]
P4N-induced expression of Activin A [2]: inhibited
expression of TNF-α and IL-8 [2]: not suppressed

NC(=O)c1ccc(-c2nc(-c3ccc4c(c3)OCO4)c(-c3ccccn3)[nH]2)cc1 [SB431542]
proliferative activity of conditioned medium on Raji or OKT3 cells [3]: lost its activity
BAFF transcription and protein expression [1]: significantly reduced

CC(Cc1ccc(O)c(O)c1)C(C)Cc1ccc(O)c(O)c1 (centres unmarked) [NDGA, Nordihydroguaiaretic acid]
LTB4 production [4]: inhibits LTB4 production

COc1cc2c(cc1OC)CN(C(=O)/C=C/c1c(-c3ccccc3)n(C)c3ncccc13)CC2 [SIS3]
proliferative activity of conditioned medium on Raji or OKT3 cells [3]: lost its activity
BAFF transcription and protein expression [1]: significantly reduced

C[S+]([O-])c1ccc(-c2nc(-c3ccncc3)c(-c3ccc(F)cc3)[nH]2)cc1 (centres unmarked) [SB203580]
BAFF transcription and protein expression [1]: had fewer effects

Cc1cccc(-c2nn(C(=S)Nc3ccccc3)cc2-c2ccnc3ccccc23)n1 [A83-01]
proliferative activity of conditioned medium on Raji or OKT3 cells [3]: lost its activity
BAFF transcription and protein expression [1]: significantly reduced
